The results in this text go back to patent publication US8658668B2, “PI3 kinase/mTOR dual inhibitor” (Eli Lilly and Company, priority 2011, dated 2014).

Assay [1] concerns the target PI3Ka (Homo sapiens, UniProt P42336). The assay can be described thus: PI3Ka Scintillation Proximity Assay. In kind it is biochemical. Conditions: 10 μM ATP; n=2; read-out: absolute IC50. The method, then:
Use the PI3Ka Scintillation Proximity Assay (PI3Ka SPA) to determine compound IC50 values against PI3Ka kinase. This assay assesses the activity PI3Ka in the presence of compound inhibitors by measuring incorporation of γ-P^33-ATP into phosphatidylinositol (4,5)bisphosphate (PIP2). Perform the kinase reactions in 40 μL reaction volumes in 96-well half-area flat bottom white with clear bottom polystyrene plates. Add PI3Ka to start the reaction. Final reaction conditions are 43.75 mM 2,2-bis(hydroxymethyl)-2,2′,2″-nitrilotriethanol (Bis-Tris) pH 7.0, 306 mM sodium chloride (NaCl), 1.76 mM polyethylene glycol octylphenyl ether (Triton® X-100), 10 μM adenosine triphosphate (ATP), 2.9 mM magnesium chloride (MgCl2) and 1 μCi per well γ-P^33-adenosine triphosphate (γ-P^33-ATP), 5.0 nM PI3Ka human recombinant enzyme, 0.2 mM palmitoyl-oleoyl phosphatidylserine (POPS), 0.04 mM phosphatidylinositol (4,5)bisphosphate (PIP2), 4% DMSO and serial dilutions of compound (diluted 1:3 from 20,000 to 1 nM). Incubate at RT for 90 min after adding PI3Ka. Stop the reaction with the addition of 40 μL of a stopping buffer containing 2.5 mg/mL neomycin linked beads (Amersham, Cat# RPNQ0506) and 21 mM ethylenediaminetetraacetic acid (EDTA). Centrifuge plates for 30 min at 1000 revolutions per minute (RPM) and count radioactivity with a Wallac Microbeta Trilux normalized for P^33. […]

Assay [2] deals with DNA-PK (Homo sapiens, UniProt P78527). The assay can be described thus: DNA-PK Z'LYTE in vitro enzyme assay. In kind it is biochemical. Conditions: 25.0 micromolar ATP; read-out: absolute IC50. An excerpt: Use the Z'LYTE® kinase assay format (Invitrogen) to determine IC50 values against DNA-PK for a compound. This is a fluorescence based, coupled enzyme assay format based on sensitivity of phosphorylated vs. nonphosphorylated dual labeled peptide substrate (Coumerin on amino terminus, Fluorescein on carboxy terminus) to proteolysis. Use the Fluorescence Resonance Energy Transfer (FRET) ratio to monitor DNA-PK activity where phosphorylation of the peptide protects the peptide from proteolytic cleavage and the FRET of the substrate is maintained. Perform the kinase reaction using 10 microliter reaction volume in a Corning®, low volume NBS, black 384 well plate (Corning® #3676). […] Read the plate on a fluorescence plate reader with 400 nm wavelength excitation filter and emission filters of 445 and 520 nm Use the signal measured with 445 nm filter (specific to Coumarin) over the signal measured with 520 filter (specific to fluorescein) to calculate the FRET ratio. […]

In assay [3] the test system is 786-O. The assay can be described thus: Cell proliferation assay (CellTiter-Glo), 786-O. In kind it is cell-based. Conditions: Homo sapiens, 786-0, 72 h. The method, then:
Plate cells in a 96-well plate at 2000 cells/well in 100 μL of cell specific medium (for U87MG use DMEM, 10% FBS, 25 mM 4-(2-hydroxyethyl)-1-piperazineethanesulfonic acid (HEPES), 1.0 mM sodium pyruvate, and 0.1 mM Non Essential Amino Acids (ATCC Cat.#30-2002); for HT1080 use Eagle's MEM, 10% FBS (ATCC Cat.#30-2003); for H1975, A2780, SJSA-1 and 786-O use RPMI 1640, 10% FBS (ATCC Cat.#30-2001); for A204 use McCoy's 5A, 10% FBS (ATCC Cat.#30-2007) except in column 1 use medium only as the blank control. Incubate the plates overnight at 37° C. and 5% CO2. On the next day, prepare compound stocks at 1 mM in DMSO and serially dilute in DMSO in a 96-well round bottom polypropylene plate. Assay compounds at 10 concentrations in duplicate, 4 compounds per plate.
Transfer 4 μL of the DMSO serial dilutions to a 96 well plate and add 196 μL of culture medium to create a 10× stock for dosing. Gently transfer 11 μL of each dosing stock to the corresponding well of the cell plate resulting in a 0.2% DMSO concentration and a 111 μL final volume. […]
Prepared the CellTiter-Glo reagent (Promega, Cat: G7571) and add 100 µL to each well after the incubation is complete, homogenize the cells by mixing on an orbital shaker for 2 min and then incubate at RT for 10 min to allow the luminescent signal to stabilize. Record the luminescent raw data with a Wallac Victor V plate reader. […]
Background: In ATP-based viability assays light output follows the ATP content of the culture.

Assay [4] concerns CXF 1103 human tumor xenograft cells. The assay can be described thus: Oncotest tumor clonogenic assay, CXF 1103. The format is cell-based. Particulars: CXF1103, colony formation, Colon CXF 1103, adeno carcinoma, pd, read-out: Absolute IC50.
Assay [5] has as its system CXF 676 human tumor xenograft cells. The assay can be described thus: Oncotest tumor clonogenic assay, CXF 676. Conditions: colony formation, Colon CXF 676, adeno carcinoma, md, read-out: Absolute IC50. The format is cell-based.
Assay [6] deals with LXFA 526 human tumor xenograft cells. The assay can be described thus: Oncotest tumor clonogenic assay, LXFA 526. The format is cell-based. Particulars: colony formation, NSCLC LXFA 526, adeno carcinoma, pd, read-out: Absolute IC50.
Assay [7] relates to MAXF 1322 human tumor xenograft cells. Put plainly: Oncotest tumor clonogenic assay, MAXF 1322. The format is cell-based. Particulars: colony formation, Mammary MAXF 1322, pap. adeno carcinoma, pd, read-out: Absolute IC50.
For assay [8], the system named is SXF 627 human tumor xenograft cells. Put plainly: Oncotest tumor clonogenic assay, SXF 627. In kind it is cell-based. Conditions: colony formation, Sarcoma SXF 627, pleomorphic rhabdomyosarcoma, pd, read-out: Absolute IC50.

Sequence of PI3Ka (P42336 whole entry): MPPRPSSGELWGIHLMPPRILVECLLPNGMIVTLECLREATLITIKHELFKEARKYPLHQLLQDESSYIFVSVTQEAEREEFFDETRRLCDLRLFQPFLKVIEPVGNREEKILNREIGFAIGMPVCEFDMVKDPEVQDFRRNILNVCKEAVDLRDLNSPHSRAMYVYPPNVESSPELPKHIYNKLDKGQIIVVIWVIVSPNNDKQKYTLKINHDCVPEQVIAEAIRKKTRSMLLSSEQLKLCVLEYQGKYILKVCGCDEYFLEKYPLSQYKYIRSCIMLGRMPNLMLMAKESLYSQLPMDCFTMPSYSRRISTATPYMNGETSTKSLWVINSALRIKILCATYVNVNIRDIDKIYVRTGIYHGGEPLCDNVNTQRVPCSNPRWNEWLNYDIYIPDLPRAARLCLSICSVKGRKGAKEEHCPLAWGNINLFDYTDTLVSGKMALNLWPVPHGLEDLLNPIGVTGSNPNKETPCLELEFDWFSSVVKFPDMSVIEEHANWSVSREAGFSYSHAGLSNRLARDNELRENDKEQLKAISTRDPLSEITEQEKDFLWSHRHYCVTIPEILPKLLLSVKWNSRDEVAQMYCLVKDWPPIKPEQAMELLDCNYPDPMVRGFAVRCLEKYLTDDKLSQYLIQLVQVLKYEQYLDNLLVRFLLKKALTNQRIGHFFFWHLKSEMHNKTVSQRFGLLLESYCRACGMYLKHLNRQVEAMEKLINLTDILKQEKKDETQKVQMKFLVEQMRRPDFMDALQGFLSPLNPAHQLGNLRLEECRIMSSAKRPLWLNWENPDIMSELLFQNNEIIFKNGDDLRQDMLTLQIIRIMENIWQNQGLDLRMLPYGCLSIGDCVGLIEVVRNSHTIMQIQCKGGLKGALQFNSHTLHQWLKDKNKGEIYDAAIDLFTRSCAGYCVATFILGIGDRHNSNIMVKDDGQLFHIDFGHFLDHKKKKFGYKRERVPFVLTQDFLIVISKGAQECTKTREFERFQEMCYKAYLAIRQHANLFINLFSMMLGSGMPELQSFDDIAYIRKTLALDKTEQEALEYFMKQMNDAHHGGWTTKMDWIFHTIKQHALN
Sequence of PI3Ka (P27986 whole entry partner): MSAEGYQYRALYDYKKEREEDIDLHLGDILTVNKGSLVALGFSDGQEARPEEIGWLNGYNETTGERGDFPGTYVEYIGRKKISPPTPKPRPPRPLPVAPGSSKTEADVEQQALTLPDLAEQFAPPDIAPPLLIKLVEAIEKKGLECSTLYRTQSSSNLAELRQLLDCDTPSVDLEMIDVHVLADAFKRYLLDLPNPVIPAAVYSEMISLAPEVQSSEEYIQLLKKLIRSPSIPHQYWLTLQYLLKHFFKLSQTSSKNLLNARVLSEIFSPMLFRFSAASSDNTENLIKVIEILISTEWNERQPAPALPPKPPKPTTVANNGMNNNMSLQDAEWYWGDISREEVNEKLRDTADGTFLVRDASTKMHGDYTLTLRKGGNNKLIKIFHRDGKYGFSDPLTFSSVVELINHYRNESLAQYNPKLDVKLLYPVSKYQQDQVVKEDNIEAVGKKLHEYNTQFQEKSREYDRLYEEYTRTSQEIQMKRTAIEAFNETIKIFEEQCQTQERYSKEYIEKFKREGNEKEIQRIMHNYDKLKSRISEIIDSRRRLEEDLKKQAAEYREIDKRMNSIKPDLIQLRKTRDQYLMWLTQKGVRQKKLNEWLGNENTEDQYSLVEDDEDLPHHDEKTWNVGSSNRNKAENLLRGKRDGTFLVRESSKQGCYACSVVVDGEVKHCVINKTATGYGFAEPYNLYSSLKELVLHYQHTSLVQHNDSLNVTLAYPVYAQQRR

By IC50 is commonly meant the concentration that gives 50% inhibition. For `CO[C@@H](C)Cn1c(=O)n(C)c2cnc3ccc(-c4cncc(C(C)(C)O)c4)cc3c21` [Example 1, 8-[5-(1-Hydroxy-1-methylethyl)pyridin-3-yl]-1-[(2S)-2-methoxypropyl]-3-methyl-1,3-dihydro-2H-imidazo[4,5-c]quinolin-2-one], the IC50 is 6.07 nM in assay [1]; 4.24 nM in assay [2]; 126 nM in assay [3]; above 200 nM in assay [4]; 350 nM in assay [5]; 84 nM in assay [6]. For the same compound, the results for the half-maximal inhibitory concentration (IC50) in assay [7] and in assay [8] were 3 nM and 95 nM, respectively.
